Each structure is given as a SMILES string. Bounds are passed on as bounds.

Assay [1] deals with anxiété induite par un nouvel environnement. Briefly: Behavioural study in rats: locomotion and rearing counts under anxiety induced by a new environment. The class given is in vivo, rat. To be noted: for profil d'action: conclusion in words from the behavioural study in the rat; for d/r: ratio of slope of déplacements to slope of redressements, specificity of effect on anxiety. An excerpt:
La 1-isopropyl- et la l-isobutyl-3,7-diméthylxan- thine ont fait l'objet d'une étude comportementale chez le rat en fonction de l'anxiété induite par un nouvel environnement. Chez le rat, l'anxiété se manifeste par des redressements de celui-ci sur ses deux pattes postérieures, tandis que ses déplacements sont l'expression de l'activité locomotrice.
• - L'induction d'un état d'anxiété s'effectue par confrontation de rats mâles "naïfs" Sprague-Dawley (Iffa-Credo, France), pesant 260 à 300 g avec un nouvel environnement constitué par des cages en Macrolon ^0 (30 x 25 cm) qui se situent dans une chambre insonorisée et climatisée (22°C et 50 % d'humidité relative). • - La détermination du nombre de redressements et de déplacements a lieu de façon automatique à partir de cellules photo-électriques à infrarouge qui n'émettent des impulsions électriques que pour les mouvements francs de l'animal et pas pour les mouvements statiques comme ceux de la tête et de la queue et ceci pour des raisons de reproductibilité. Ces cellules photo-électriques quadrillent les cages à deux niveaux différents de façon à distinguer les redressements des déplacements. Le nombre de redressements et de déplacements est compté par les deux séries de cellules photo-électriques, mémorisé et restitué sur une imprimante selon un programme préétabli. • - On administre oralement par intubation oesophagienne le composé testé en solution, l'administration de référence étant constituée par 6 ml/kg d'eau distillée, et ceci 30 minutes avant de placer les animaux dans les cages. Le nombre de redressements et de déplacements est déterminé durant les 15 minutes qui suivent la mise en cage, par rapport à l'effet engendré par l'administration de référence.
• - Le tableau I ci-après montre l'évolution des effets des substances testées sur le nombre de déplacements et de redressements en fonction des doses administrées exprimé en pourcentage des déplacements et redressements comptés pour l'administration de référence. [formula] • - A partir des données précédentes, on établit les droites de régression pour les déplacements et les redressements selon la méthode décrite par Saubrié, P.J. Pharmacol, (Paris) 2 (1971) 457-472, l'équation de ces droites de régression correspondant à la moyenne exprimée en % des performances des références en fonction produit par 10 du logarithme des doses (on ne considère que les doses ne diminuant pas l'activité motrice de plus de 75 %). • - La comparaison des pentes des droites de régression correspondant aux déplacements et aux redressements est effectuée en portant sur un système d'axes orthonormés en abscisse (d) la valeur de la pente de la droite des déplacements et en ordonnée (r) celle de la pente des redressements. Ces valeurs mettent en évidence la relation effet-dose pour une substance donnée. • - On détermine également le rapport de la pente des déplacements sur celle des redressements qui permet de juger de la spécificité d'effet d'une substance donnée sur l'anxiété.
La détermination de l'effet d'une substance est donnée par sa localisation par rapport à la droite d = r de pente = 1. Les substances situées sur cette droite ont un effet semblable sur les redressements et les déplacements. Les substances pour lesquelles la valeur absolue de la pente des redressements est significativement supérieure à celle des déplacements ont une action spécifique sur l'anxiété.

Assay [2] concerns enflement de l'oreille chez la souris. Nature of the assay: Delayed cutaneous hypersensitivity test (oxazolone), inhibition of ear swelling. Format: in vivo. The note with it: for % d'inhibition de l'enflement d'oreille: dose 150 mg/kg de poids corporel, ear thickness 24 h after challenge, relative to control. The procedure:
L'activité immunosuppressante a été comparée à celle du cyclophosphamide, médicament immunosuppressant connu, comme inhibiteur de l'enflement de l'oreille chez la souris en réponse à l'agression antigénique dans un test d'hypersensibilisation cutanée retard à la dose de 150 mg/kg.
Le test a été conduit par exemple comme décrit par G.L. Asherson et W. Ptak dans Immunology 15, 405 (1968). Des souris ont été immunisées par application cutanée abdominale de 0,1 ml d'une solution à 3 % d'oxazolone. 7 jours après la sensibilisation, les animaux ont été provoqués par peinture de la même solution sur la peau de l'oreille. On a administré simultanément soit le composé ci-dessus soit le cyclophosphamide à une partie des animaux, les animaux restants servant de contrôle. 24 heures après l'agression, on a mesuré l'épaisseur de l'oreille. L'activité immunosuppressante exprimée en % de l'inhibition de l'enflement de l'oreille par rapport au contrôle est indiquée ci-après : […]

Consider `Cn1c(=O)c2[nH]cnc2n(C)c1=O` [théophylline, reference compound], for which, in assay [1], the “profil d'action” value is “psychostimulante et n'a pas d'effet sur l'anxiété” and the d/r is given as greater than 1.
As for `Cn1cnc2c1c(=O)n(Cn1c(=O)c3c(ncn3C)n(C)c1=O)c(=O)n2C` [di(3,7-diméthylxanthin-1-yl)méthane], the “% d'inhibition de l'enflement d'oreille” value in assay [2] amounted to 55%. Also, in assay [2] (result in words), the activité immunosuppressante result is “a montré une activité immunosuppressante”.
For the molecule `CNC1=Nc2ccc(Cl)cc2C(c2ccccc2)=[N+]([O-])C1` [chlordiazépoxide, reference compound], the d/r in assay [1] is given as less than 1.
As to `O=P1(N(CCCl)CCCl)NCCCO1` (stereo not drawn) [cyclophosphamide, reference compound], in assay [2], the “% d'inhibition de l'enflement d'oreille” value was found to be 73%.
For the molecule `CC(C)n1c(=O)c2c(ncn2C)n(C)c1=O` [1-isopropyl-3,7-diméthylxanthine], the d/r in assay [1] is given as less than 1.
`CC(C)Cn1c(=O)c2c(ncn2C)n(C)c1=O` [1-isobutyl-3,7-diméthylxanthine]: the “profil d'action” value is recorded as “sédatif non spécifique” in assay [1] and “effet sédatif comparable à celui d'un neuroleptique type” in assay [1] (listed as l-isobutyl-3,7-diméthylxanthine).

(Values after patent EP0063827A1, “1-Isopropyl- and 1-isobutyl-3,7-dimethyl xanthine as pharmaceutical preparations” (SOCIETE DES PRODUITS NESTLE S.A., priority 1980, dated 1980).)
